Values of other authors as cited in article PMC10034008, “Pretargeted imaging beyond the blood–brain barrier” (RSC Medicinal Chemistry, 2022).

Set-up: method as in ESI 3, 4
Conditions: irreversible tracers in their respective target regions; ref ESI 3, 4

## [11CH3]N1CN(c2ccccc2)C2(CCN(CCCC(=O)c3ccc(F)cc3)CC2)C1=O [N-[11C]methylspiperone]
  trapping rate k3: 0.06 min⁻¹

## CCC(=O)OC1CCN([11CH3])CC1 [[11C]PMP]
  trapping rate k3: 0.03 to 0.35 min⁻¹
